According to PMC3025922 (BMC Biology, 2010):
Where two headings read alike, the source gives them in different places.

Test system: nuclear p27 in LNCaP-S14 cells
Type: cell-based, human
[1] = primary screening, nuclear p27 in LNCaP-S14 cells
[2] = primary screening, S = strong, M = medium, W = weak by Z score

Structure (SMILES)	hit in primary screen (increased percentage of p27 positive cells) (LNCaP-S14, ~5 to 35 μM, 18 h)	Z score (aver) [1]	Clasf [2]	Clasf	Z score (aver)
C=CCNC1=C2C[C@@H](C)C[C@H](OC)[C@H](O)[C@@H](C)/C=C(\C)[C@H](OC(N)=O)[C@@H](OC)/C=C\C=C(/C)C(=O)NC(=CC1=O)C2=O [17-N-allylamino-17-demethoxygeldanamycin, reference compound]	identified				
CCC1C=CC=CCC(C)C(O)C(C)(O)C(=O)C(C)C(O)C(C)C(=O)C(C)C(O)C(C)C=CC(=O)OC2C(C)C(CC1)OC1(CCC(C)C(CC(C)O)O1)C2C (centres unmarked) [500B11]		3.61	M (medium (Z score 3-5))		
CCCCCCc1ccc(O)cc1O [500E16]		3.71	M (medium (Z score 3-5))		
CC(C)COCC(CN(Cc1ccccc1)c1ccccc1)N1CCCC1.Cl (centres unmarked) [500F12]		5.49	S (strong (Z score > 5))		
CCN(CC)CCOC(=O)C(c1ccccc1)C1CCCCC1.Cl (centres unmarked) [500G17]		2.62	W (weak (Z score 2-3)		
O=C(O)C1CCCNC1 (centres unmarked) [500H10]				M (key: S: strong (Z score > 5); M: medium (Z score 3-5); W: weak (Z score 2-3)	3.12
CCN(CC)CCOC(=O)C1(C2CCCCC2)CCCCC1.Cl [500I04]		5.96	S (strong (Z score > 5))		
Cl.N=C(N)NC(=O)c1nc(Cl)c(N)nc1N [500J04]		2.43	W (weak (Z score 2-3)		
Clc1ccc(CSC(Cn2ccnc2)c2ccc(Cl)cc2Cl)cc1.O=[N+]([O-])O (centres unmarked) [500K22]		3.37	M (medium (Z score 3-5))		
NCC(O)c1ccc(O)c(O)c1 (centres unmarked) [500L12]		9.42	S (strong (Z score > 5))		
CN(C)c1ccc(O)c2c1CC1CC3C(N(C)C)C(O)=C(C(N)=O)C(=O)C3(O)C(O)=C1C2=O.Cl (centres unmarked) [501G12]		5.15	S (strong (Z score > 5))		
Oc1ccc(Cl)cc1Cc1cc(Cl)ccc1O [501G22]		4.38	M (medium (Z score 3-5))		
C[n+]1cc2c3c(ccc2c2ccc4cc5c(cc4c21)OCO5)OCO3.O=[N+]([O-])[O-] [501I17]		4.78	M (medium (Z score 3-5))		
COC1CC(CC2CCC(C)C(C(C)C(=O)[O-])O2)OC2(OC(C)(C3CCC(C)(C4OC(C5OC(O)(CO)C(C)CC5C)CC4C)O3)CC2C)C1C.[Na+] (centres unmarked) [501K17]		5.95	S (strong (Z score > 5))		
CCC1(O)CC(OC2CC(N(C)C)C(OC3CC(O)C(OC4CCC(=O)C(C)O4)C(C)O3)C(C)O2)c2c(cc3c(c2O)C(=O)c2c(O)cccc2C3=O)C1C(=O)OC (centres unmarked) [502B20]		3.61	M (medium (Z score 3-5))		
CC(C)CC1C(=O)N2CCCC2C2(O)OC(NC(=O)C3C=C4c5cccc6[nH]c(Br)c(c56)CC4N(C)C3)(C(C)C)C(=O)N12.CS(=O)(=O)O (centres unmarked) [502C19]		2.62	W (weak (Z score 2-3)		
Cc1cc(C2CCCCC2)n(O)c(=O)c1.NCCO [502D07]		4.86	M (medium (Z score 3-5))		
CCCCC(CC)CNC(=N)NC(=N)NCCCCCCNC(=N)NC(=N)NCC(CC)CCCC.Cl (centres unmarked) [502E04]		9.20	S (strong (Z score > 5))		
CC=C(C(=CC)c1ccc(O)cc1)c1ccc(O)cc1 [502G13]		2.95	W (weak (Z score 2-3)		
CCC(C(=O)[O-])C1CCC(C)C(C(C)C(O)C(C)C(=O)C(CC)C2OC3(C=CC(O)C4(CCC(C)(C5CCC(O)(CC)C(C)O5)O4)O3)C(C)CC2C)O1.[Na+] (centres unmarked) [502H07]		6.22	S (strong (Z score > 5))		

Structure (SMILES)	hit in primary screen (increased percentage of p27 positive cells) (LNCaP-S14, ~5 to 35 μM, 18 h)	Z score (aver) [1]	Clasf [2]	Clasf	Z score (aver)
NC(CO)(CO)CO.O=C(c1ccccc1)c1ccc2n1CCC2C(=O)O (centres unmarked) [502J18]		2.67	W (weak (Z score 2-3)		
Cc1ccc(-c2cc(C(F)(F)F)nn2-c2ccc(S(N)(=O)=O)cc2)cc1 [502M15]		2.59	W (weak (Z score 2-3)		
CCCCCc1cc(O)c2c(c1)OC(C)(C)c1ccc(C)cc1-2 [503C05]		5.93	S (strong (Z score > 5))		
COC12C(COC(N)=O)C3=C(C(=O)C(C)=C(N)C3=O)N1CC1NC12 (centres unmarked) [503O09]				M (key: S: strong (Z score > 5); M: medium (Z score 3-5); W: weak (Z score 2-3)	4.55
CS(=O)(=O)c1ccc(F)c(N2C(=O)C=CC2=O)c1 [518H15]		7.59	S (strong (Z score > 5))		
CS(=O)(=O)c1ccc(C=CC(=O)Nc2cccc(C(F)(F)F)c2)cc1 [518N13]		5.55	S (strong (Z score > 5))		
CS(=O)(=O)c1ccc(C=CC(=O)Nc2ccccn2)cc1 [518N17]		4.22	M (medium (Z score 3-5))		
CS(=O)(=O)c1ccc2[nH]c(C(=O)N3CCN(c4ncccc4C(F)(F)F)CC3)cc2c1 [519A06]		2.71	W (weak (Z score 2-3)		
Cl.O=C(OC(CCCN1CCOCC1)c1ccc(F)cc1)C(c1ccccc1)c1ccccc1 (centres unmarked) [519B04]		2.10	W (weak (Z score 2-3)		
COc1ccccc1CNC1CC(C)(C)n2cccc21 (centres unmarked) [519F12]		2.47	W (weak (Z score 2-3)		
CCOC(=O)c1cc2cccc(NC(=O)c3ccccc3OC(C)=O)c2[nH]1 [519O17]		9.25	S (strong (Z score > 5))		
CCN(C(=O)c1ccc(C(C)(C)C)cc1)c1ccc(Sc2nc(C)cc(C)n2)cc1 [519P04]		5.16	S (strong (Z score > 5))		
CC(C)(C)c1cc2cc(NC(=O)C3CC3)ccc2[nH]1 [520D04]		2.80	W (weak (Z score 2-3)		
CC(C)(C)c1cc2cc(NC(=O)c3cccs3)ccc2[nH]1 [520D16]		3.98	M (medium (Z score 3-5))		
CC(=O)N1CCC(N(C(=O)C2CC2)c2ccc3c(c2)CCN3C(C)=O)CC1 [520E02]		2.46	W (weak (Z score 2-3)		
CCOC(=O)c1cc2cccc(NS(=O)(=O)c3cccc(C(F)(F)F)c3)c2[nH]1 [520F11]		7.25	S (strong (Z score > 5))		
CC1CN(C(=O)c2cc(-c3ccc(Cl)cc3)cs2)CC(C)O1 (centres unmarked) [520H18]		6.87	S (strong (Z score > 5))		
CC(C)(C)c1cc2cc(NC3CCN(C(=O)c4ccccc4Cl)CC3)ccc2[nH]1 [520N14]		2.16	W (weak (Z score 2-3)		
Cc1cc(C)nc(N2CCN(C(=O)C(c3ccccc3)c3ccccc3)CC2)n1 [521H09]		2.35	W (weak (Z score 2-3)		
O=C(Nc1ccccc1)Nc1ccc(SCc2nc(OCC(F)(F)F)cc(OCC(F)(F)F)n2)cc1 [521I09]		3.70	M (medium (Z score 3-5))		

Structure (SMILES)	hit in primary screen (increased percentage of p27 positive cells) (LNCaP-S14, ~5 to 35 μM, 18 h)	Z score (aver) [1]	Clasf [2]	Clasf	Z score (aver)
CC(C)(C)c1ccc(S(=O)(=O)Nc2ccc3[nH]c(C(C)(C)C)cc3c2)cc1 [521I15]		7.27	S (strong (Z score > 5))		
COc1ccc(S(=O)(=O)Nc2ccc3[nH]c(C(C)(C)C)cc3c2)cc1 [521I17]		3.94	M (medium (Z score 3-5))		
CC(C)(C)c1cc2cc(NS(=O)(=O)c3ccc(Cl)cc3)ccc2[nH]1 [521I19]		9.14	S (strong (Z score > 5))		
CC(C)(C)c1ccc(C(=O)N2CCC(N(C3CC3)S(=O)(=O)c3cccc(C(F)(F)F)c3)CC2)cc1 [521J08]		2.93	W (weak (Z score 2-3)		
CCCN1CCC(N(C(=O)c2ccc(NC(=O)C(c3ccccc3)c3ccccc3)cc2)C2CC2)CC1 [521L12]		4.02	M (medium (Z score 3-5))		
Cc1[nH]cnc1-c1ccc(C(F)(F)F)cc1 [522D05]		3.87	M (medium (Z score 3-5))		
COc1ccccc1CN(C(=O)Nc1ccc(F)cc1F)c1ccc2[nH]c(C(C)(C)C)cc2c1 [522J16]		4.05	M (medium (Z score 3-5))		
CCC(=O)N(Cc1cccc(Cl)c1)c1ccc2[nH]c(C(C)(C)C)cc2c1 [522J18]		6.59	S (strong (Z score > 5))		
COc1ccccc1NC(=O)N(Cc1cccc(Cl)c1)c1ccc2[nH]c(C(C)(C)C)cc2c1 [522L04]		4.02	M (medium (Z score 3-5))		
O=C(C(c1ccccc1)c1ccccc1)N(Cc1ccc(Cl)cc1)Cc1ccc2cc[nH]c2c1 [522N04]		2.29	W (weak (Z score 2-3)		
COc1ccc(S(=O)(=O)N(Cc2ccc(Cl)cc2)Cc2ccc3cc[nH]c3c2)cc1 [522N08]		3.74	M (medium (Z score 3-5))		
COc1ccc(S(=O)(=O)Nc2cccc3cc(C(=O)NCc4ccc(Cl)cc4)[nH]c23)cc1 [522N16]		5.29	S (strong (Z score > 5))		
CCN(CC)c1ccc(NCN2C(=O)c3ccccc3C2=O)c(C)c1 [541E03]		2.75	W (weak (Z score 2-3)		
CCCCc1ccc(NC(C)=O)c(C)c1 [541G02]				S (key: S: strong (Z score > 5); M: medium (Z score 3-5); W: weak (Z score 2-3)	7.67
O=C(c1ccc(Cl)nc1)N(Cc1ccc(-c2cccs2)s1)C1CC1 [541H08]		2.92	W (weak (Z score 2-3)		
CC(=O)Nc1ccc(S(=O)(=O)N(Cc2ccc3c(c2)CCO3)C2CC2)cc1 [541J07]		3.47	M (medium (Z score 3-5))		
CCN(C(=S)Nc1cccc(C(F)(F)F)c1)c1ccccc1 [541K01]		4.12	M (medium (Z score 3-5))		
S=C(NCc1ccccc1)Nc1ccc(Br)cc1 [541M20]		4.62	M (medium (Z score 3-5))		
CCCCCCSc1nnc(N)s1 [541O08]		8.05	S (strong (Z score > 5))		
O=C1C(Cl)=C(N2CCC(C(=O)N3CCOCC3)CC2)C(=O)c2ccccc21 [567A03]		6.25	S (strong (Z score > 5))		
